Assay results as given in patent US20250326771A1, “PIPERAZINE DERIVATIVES USEFUL IN HIV THERAPY” (VIIV HEALTHCARE COMPANY, priority 2022, published 2025).

Columns and labels:
cIAP2-BIR2 = cIAP2-BIR2 (Homo sapiens (Human), UniProt Q13489); test: BIR binding assay (FRET competition), cIAP2 BIR2
Experimental: (§1) The BIR domain binding assays are FRET based competition assays that utilize His-tagged versions of each of the BIR2 and BIR3 domains from cIAP1, cIAP2, and XIAP (each domain assayed separately) each at a custom optimal concentration and a probe, 200 nM SMAC/DIABLO peptide […] labelled with AlexaFluor647 (part #crb 1110326h, Discovery Peptides). The assay is conducted in 50 mM HEPES, […], 1 mM CHAPS, 5% Glycerol, 1 mM DTT, in dI water with a final pH of 7.4 and final volume of 20 uL. Final protein domain concentrations are: 50 nM cIAP1-BIR3 (Part #APT-11-370 Reaction Biology), 100 nM XIAP-BIR3 (Part #APT-11-351 Reaction Biology), 200 nM XIAP-BIR2 (Part #APT-11-470 Reaction Biology), 325 nM cIAP2-BIR2 (Part #APT-11-489 Reaction Biology), 50 nM cIAP2-BIR3 (Part #APT-11-372 Reaction Biology), 325 nM cIAP1-BIR2 (Part #APT-11-487 Reaction Biology). Compounds were plated using a HP Tecan D300 printer in a final total volume of 202 nl and DMSO concentration normalized across the 15-point, 3-fold dilution series. Peptide and probe were prepared at 2× relative to the concentrations above in binding buffer, 10 uL added to the prepared compound plates, and incubated for 60 minutes. LANCE Eu-W1024 (part #AD0401 Perkin Elmer #, vendor) was prepared at 2× concentration in binding buffer for final concentration of 2 nM, 10 uL added to each well, and plates incubated for 30 minutes. Plates were read on an ENVISION multifunction plate reader with […] laser excitation to obtain the 615 nm/665 nm emission ratio as indicative of probe:protein proximity. Data was analyzed using GraphPad PRISM and curves fit using log(inhibitor) vs. response—Variable slope (four […] method to obtain IC50 and pIC50 values.

XIAP-BIR3 = XIAP-BIR3 (Homo sapiens (Human), UniProt P98170); test: BIR binding assay (FRET competition), XIAP BIR3
How it was run: (§2)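 His-tagged domains (50 nM cIAP1-BIR3, 325 nM cIAP2-BIR2, 325 nM cIAP1-BIR2, 100 nM XIAP-BIR3) compete with compounds for a 200 nM AlexaFluor647-labelled SMAC/DIABLO peptide in HEPES buffer, pH 7.4, for 60 min. Then 2 nM Eu-W1024 is added for 30 min. The 615/665 nm ratio is fit by four-parameter fit to give IC50.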

cIAP2-BIR3 = cIAP2-BIR3 (Homo sapiens (Human), UniProt Q13489); test: BIR binding assay (FRET competition), cIAP2 BIR3; conditions: for cIAP2 BIR3 vs BIR2 separation window: fold separation (FS) for cIAP2
cIAP1-BIR3 = cIAP1-BIR3 (Homo sapiens (Human), UniProt Q13490); test: BIR binding assay (FRET competition), cIAP1 BIR3; conditions: for cIAP1 BIR3 vs BIR2 separation window: fold separation (FS) for cIAP1
How it was run: as §2

[1] = tested on: Jurkat HIV-luciferase clones; test: Jurkat latency reversal assay; type: cell-based; conditions: Homo sapiens, 48 h; Jurkat latency reversal assay potency; read-out: Jurkat pEC50 (converted)
How it was run: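 EC50 and maximal activation versus vehicle were derived by four-parameter logistic regression of luciferase luminescence. The luminescence was induced in pooled Jurkat HIV-luciferase clones C16, 115 and N6 (5,000 cells/well) after 48 h at 37° C with duplicate 14-point, 3-fold dilutions starting at 10 μM (0.5% DMSO).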

cIAP1-BIR2 = cIAP1-BIR2 (Homo sapiens (Human), UniProt Q13490); test: BIR binding assay (FRET competition), cIAP1 BIR2
Experimental: as §1

Chain of XIAP-BIR3 (P98170 241-356): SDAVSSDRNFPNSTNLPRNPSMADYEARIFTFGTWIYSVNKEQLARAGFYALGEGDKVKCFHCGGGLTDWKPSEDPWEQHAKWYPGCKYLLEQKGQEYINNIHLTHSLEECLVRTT
Chain of cIAP1-BIR3 (Q13490 253-363): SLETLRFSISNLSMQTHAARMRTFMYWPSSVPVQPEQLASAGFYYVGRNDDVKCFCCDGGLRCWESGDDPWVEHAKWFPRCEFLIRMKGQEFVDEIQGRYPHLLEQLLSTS
Chain of cIAP2-BIR3 (Q13489 238-349): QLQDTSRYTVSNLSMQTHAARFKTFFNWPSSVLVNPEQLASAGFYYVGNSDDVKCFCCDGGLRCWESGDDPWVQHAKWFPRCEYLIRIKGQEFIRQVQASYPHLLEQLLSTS
Chain of cIAP1-BIR2 (Q13490 173-257): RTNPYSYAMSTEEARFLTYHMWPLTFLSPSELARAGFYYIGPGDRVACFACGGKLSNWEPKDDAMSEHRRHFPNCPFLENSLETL
Chain of cIAP2-BIR2 (Q13489 158-242): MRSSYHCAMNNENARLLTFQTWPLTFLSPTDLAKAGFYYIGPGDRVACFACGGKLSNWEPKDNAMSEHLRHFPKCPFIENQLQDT

Compound | IC50 (cIAP2-BIR2) | IC50 (XIAP-BIR3) | IC50 (cIAP2-BIR3) | cIAP2 BIR3 vs BIR2 separation window (cIAP2-BIR3) | IC50 (cIAP1-BIR3) | cIAP1 BIR3 vs BIR2 separation window (cIAP1-BIR3) | EC50 [1] | IC50 (cIAP1-BIR2)
CC(C)c1ccccc1Cc1cc2c([nH]c1=O)C(C)(C)CN2C(=O)CN1C[C@@H](C)NC[C@@H]1CN1CCO[C@H](C(=O)NCc2ccc(CNC(=O)[C@@H]3CN(C[C@H]4CN[C@H](C)CN4CC(=O)N4CC(C)(C)c5[nH]c(=O)c(Cc6ccccc6C(C)C)cc54)CCO3)cc2)C1 [Compound 173, (2S,2′S)-N,N′-(1,4-phenylenebis(methylene)) bis(4-(((2R,5R)-1-(2-(6-(2-isopropylbenzyl)-3,3-dimethyl-5-oxo-2,3,4,5-tetrahydro-1H-pyrrolo[3,2-b]pyridin-1-yl)-2-oxoethyl)-5-methylpiperazin-2-yl)methyl)morpholine-2-carboxamide)] | 3.16 to 10 µM | 0.0316 to 0.501 µM | 0.0158 to 0.0316 µM | +++ (10,000>FS>1,000) | 0.0316 to 0.501 µM | +++ (10,000>FS>1,000) | 0.0631 to 0.316 µM | 10 to 51.3 µM
C[C@@H]1CN(CC(=O)N2CC(C)(C)c3c2cc(Cc2ccc(F)cc2)c(=O)n3C)[C@@H](CN2CCO[C@H](COCC#CC#CCOC[C@@H]3CN(C[C@H]4CN[C@H](C)CN4CC(=O)N4CC(C)(C)c5c4cc(Cc4ccc(F)cc4)c(=O)n5C)CCO3)C2)CN1 [Example 116, 1,1′-(2,2′-((3R,3′R,6R,6′R)-(((2S,2'S)-((hexa-2,4-diyne-1,6-diylbis(oxy))bis(methylene))bis(morpholine-2,4-diyl))bis(methylene))bis(3-methylpiperazine-6,1-diyl))bis(acetyl))bis(6-(4-fluorobenzyl)-3,3,4-trimethyl-1,2,3,4-tetrahydro-5H-pyrrolo[3,2-b]pyridin-5-one)] | 3.16 to 10 µM | 0.0316 to 0.501 µM | 0.0158 to 0.0316 µM | +++ (10,000>FS>1,000) | 0.0158 to 0.0316 µM | +++ (10,000>FS>1,000) | 0.316 to 3.31 µM | 3.16 to 10 µM
C[C@@H]1CN(CC(=O)N2CC(C)(C)c3[nH]c(=O)c(Cc4ccc(F)cc4)cc32)[C@@H](CN2CCN(C(=O)/C=C/c3ccc(/C=C/C(=O)N4CCN(C[C@H]5CN[C@H](C)CN5CC(=O)N5CC(C)(C)c6[nH]c(=O)c(Cc7ccc(F)cc7)cc65)[C@H](C)C4)cc3)C[C@H]2C)CN1 [Example 14, 1,1′-(2,2′-((3R,3′R,6R,6′R)-(((2R,2′R)-((2E,2′E)-3,3′-(1,4-phenylene)bis(acryloyl))bis(2-methylpiperazine-4,1-diyl))bis(methylene))bis(3-methylpiperazine-6,1-diyl))bis(acetyl))bis(6-(4-fluorobenzyl)-3,3-dimethyl-1,2,3,4-tetrahydro-5H-pyrrolo[3,2-b]pyridin-5-one)] | 0.0224 to 1 µM | 0.0158 to 0.0316 µM | 0.0158 to 0.0316 µM | ++ (1,000>FS>100) | 0.0158 to 0.0316 µM | ++ (1,000>FS>100) | 0.0631 to 0.316 µM | 0.0224 to 1 µM
C[C@@H]1CN(CC(=O)N2CC(C)(C)c3[nH]c(=O)c(Cc4ccc(F)cc4)cc32)[C@@H](CN2CCO[C@H](COc3ccc(F)c(OC[C@@H]4CN(C[C@H]5CN[C@H](C)CN5CC(=O)N5CC(C)(C)c6[nH]c(=O)c(Cc7ccc(F)cc7)cc65)CCO4)c3F)C2)CN1 [Example 74, 1,1′-(2,2′-((3R,3′R,6R,6′R)-(((2S,2'S)-(((2,4-difluoro-1,3-phenylene)bis(oxy))bis(methylene))bis(morpholine-2,4-diyl))bis(methylene))bis(3-methylpiperazine-6,1-diyl))bis(acetyl))bis(6-(4-fluorobenzyl)-3,3-dimethyl-1,2,3,4-tetrahydro-5H-pyrrolo[3,2-b]pyridin-5-one)] | 1 to 3.16 µM | 0.00138 to 0.00794 µM | 0.00138 to 0.00794 µM | +++ (10,000>FS>1,000) | 0.00138 to 0.00794 µM | +++ (10,000>FS>1,000) | 0.00049 to 0.0126 µM | 1 to 3.16 µM
C[C@@H]1CN(CC(=O)N2CC(C)(C)c3[nH]c(=O)c(Cc4ccc(F)cc4)cc32)[C@@H](CN2CCO[C@H](COc3ccc(C(=O)C(=O)c4ccc(OC[C@@H]5CN(C[C@H]6CN[C@H](C)CN6CC(=O)N6CC(C)(C)c7[nH]c(=O)c(Cc8ccc(F)cc8)cc76)CCO5)cc4)cc3)C2)CN1 [Example 59, 1,2-bis(4-(((S)-4-(((2R,5R)-1-(2-(6-(4-fluorobenzyl)-3,3-dimethyl-5-oxo-2,3,4,5-tetrahydro-1H-pyrrolo[3,2-b]pyridin-1-yl)-2-oxoethyl)-5-methylpiperazin-2-1)methyl)morpholin-2-yl)methoxy)phenyl)ethane-1,2-dione] | 3.16 to 10 µM | 0.0158 to 0.0316 µM | 0.00794 to 0.0158 µM | +++ (10,000>FS>1,000) | 0.0158 to 0.0316 µM | +++ (10,000>FS>1,000) | 0.00049 to 0.0126 µM | 3.16 to 10 µM
C[C@@H]1CN(CC(=O)N2CC(C)(C)c3[nH]c(=O)c(Cc4ccc(Cl)cc4O)cc32)[C@@H](CN2CCO[C@H](C(=O)NCc3ccc(CNC(=O)[C@@H]4CN(C[C@H]5CN[C@H](C)CN5CC(=O)N5CC(C)(C)c6[nH]c(=O)c(Cc7ccc(Cl)cc7O)cc65)CCO4)cc3)C2)CN1 [Compound 164, (2S,2′S)-N,N′-(1,4-phenylenebis(methylene)) bis(4-(((2R,5R)-1-(2-(6-(4-chloro-2-hydroxybenzyl)-3,3-dimethyl-5-oxo-2,3,4,5-tetrahydro-1H-pyrrolo[3,2-b]pyridin-1-yl)-2-oxoethyl)-5-methylpiperazin-2-yl)methyl)morpholine-2-carboxamide)] | 0.0224 to 1 µM | 0.00794 to 0.0158 µM | 0.00138 to 0.00794 µM | ++ (1,000>FS>100) | 0.00138 to 0.00794 µM | ++ (1,000>FS>100) | 0.0631 to 0.316 µM | 0.0224 to 1 µM
C[C@@H]1CN(CC(=O)N2CC(C)(C)c3[nH]c(=O)c(Cc4ccc(Cl)cc4Cl)cc32)[C@@H](CN2CCO[C@H](C(=O)NCc3ccc(CNC(=O)[C@@H]4CN(C[C@H]5CN[C@H](C)CN5CC(=O)N5CC(C)(C)c6[nH]c(=O)c(Cc7ccc(Cl)cc7Cl)cc65)CCO4)cc3)C2)CN1 [Compound 165, (2S,2′S)-N,N′-(1,4-phenylenebis(methylene)) bis(4-(((2R,5R)-1-(2-(6-(2,4-dichlorobenzyl)-3,3-dimethyl-5-oxo-2,3,4,5-tetrahydro-1H-pyrrolo[3,2-b]pyridin-1-yl)-2-oxoethyl)-5-methylpiperazin-2-yl)methyl)morpholine-2-carboxamide)] | 3.16 to 10 µM | 0.0316 to 0.501 µM | 0.00138 to 0.00794 µM | +++ (10,000>FS>1,000) | 0.00794 to 0.0158 µM | +++ (10,000>FS>1,000) | 0.0126 to 0.0631 µM | 1 to 3.16 µM
C[C@@H]1CN(CC(=O)N2CC(C)(C)c3[nH]c(=O)c(Cc4ccc(F)cc4)cc32)[C@@H](CN2CCO[C@H](COCCCCCCOC[C@@H]3CN(C[C@H]4CN[C@H](C)CN4CC(=O)N4CC(C)(C)c5[nH]c(=O)c(Cc6ccc(F)cc6)cc54)CCO3)C2)CN1 [Example 64, 1,1′-(2,2′-((3R,3′R,6R,6′R)-(((2S,2'S)-((hexane-1,6-diylbis(oxy))bis(methylene))bis(morpholine-2,4-diyl))bis(methylene))bis(3-methylpiperazine-6,1-diyl))bis(acetyl))bis(6-(4-fluorobenzyl)-3,3-dimethyl-1,2,3,4-tetrahydro-5H-pyrrolo[3,2-b]pyridin-5-one)] | 10 to 51.3 µM | 0.00794 to 0.0158 µM | 0.00138 to 0.00794 µM | – | 0.00794 to 0.0158 µM | – | 0.00049 to 0.0126 µM | 10 to 51.3 µM
